Experimental data: patent publication US5863716A, “Treatment of plasmodium” (The Leland Stanford Junior University Board of Trustees, priority 1997, dated 1999)

What was measured:
P. falciparum = assay: Intraerythrocytic development in long term synchronized culture, parasitemia over consecutive cycles; assay type: cell-based, Plasmodium falciparum
Procedure: Synchronized cultures 12 h after invasion were subjected to different concentrations of PPMP. Parasitemias of drug-treated cultures were determined at various time points during two intraerythrocytic cycles and compared to cells grown in the absence of drug.
The effect of the single lipid analogs to inhibit parasite development in long term culture in consecutive cycles of the parasite growth were investigated. The studies were initiated with synchronized, young rings (0-12h) at 10% parasitemia. In order to ensure healthy growth of the malaria parasite in vitro, the parasitemias of the cultures are not allowed to exceed 10%. Yet under normal conditions a 3-6 fold increase in parasitemias is detected with each round of invasion: thus for each new cycle, the cultures were diluted 4-fold into fresh erythrocytes in the absence or presence of the drug. […] The lowest effective, killing concentration of PDMP over three cycles of growth is 1.0 μM.

protein synthesis = assay: Effect on protein synthesis; assay type: cell-based
[1] = test system: P. falciparum schizonts and merozoites; assay: Schizont maturation and merozoite invasion in the presence of drug; assay type: cell-based, Plasmodium falciparum; settings: 5 μM
Procedure: Schizont-stage parasites isolated over Percoll were allowed to invade in the presence of RPMI 1640 containing 10% human serum or in the presence of RPMI 1640 containing 10% human serum and 5 μM PPMP. 1×10^8 infected erythrocytes of the appropriate stage were incubated in 1 ml of RPMI 1640 supplemented with 2mg/ml defatted BSA and 20 μM C5 -DMB-ceramide. Cells were washed and fixed as described in Example 5. Sequential micrographs were taken on a custom made laser confocal microscope at 400 nm intervals along the Z axis. Raw data were processed as described previously.
Furthermore, the released daughter merozoites enter red cells to form new rings in the continued presence of the drug. This supports the conclusion that the parasite sphingomyelin synthase is essential only to ring and trophozoite-infected red cells in the first 30 to 36 h of intraerythrocytic development.
To determine whether the parasite specific sphingomyelin synthase activity is required for the development of the TVM, ring-infected erythrocytes inhibited in the enzyme from the onset of intra- erythrocytic development were employed. […] Optical sections obtained by staining with C5 DMB-ceramide were observed. A tubular structure was seen extending from the body of the parasite apparently connected to a larger vesicle in the red cell. In rings formed in the presence of PPMP, the intraerythrocytic structures are seen as discrete domains, separated from each other in all three sections. […] Thus, specific inhibition of the parasite's sphingomyelin biosynthetic activity appears to alter the interconnected "tubovesicular morphology" of the TVM into isolated intraerythrocytic compartments or "vesicles" in ring stage parasites.

P. chabaudi = assay: Single cycle of expansion in culture, mouse malaria; assay type: cell-based
From the text: (§1) The human malaria parasite P. falciparum can be grown in monkeys but not in rodents. However, since primates are expensive, rodents are used as a animal first screen. P. yoelii and P. chabaudi are commonly used strains of mouse malaria.

P. yoelii = assay: as above; assay type: cell-based
From the text: as §1

[2] = PPMP 0.05 μM, time in drug 0 h, time of cycle 12 h, cycle 1
[3] = PPMP 0.05 μM, time in drug 34 h, time of cycle 46 h, cycle 1, culture fourfold diluted
[4] = PPMP 0.05 μM, time in drug 60 h, time of cycle 12 h, cycle 2
[5] = PPMP 0.05 μM, time in drug 80 h, time of cycle 32 h, cycle 2, culture fourfold diluted
[6] = PPMP 0.05 μM, time in drug 104 h, time of cycle 8 h, cycle 3
[7] = PPMP 0.1 μM, time in drug 0 h, time of cycle 12 h, cycle 1
[8] = PPMP 0.1 μM, time in drug 34 h, time of cycle 46 h, cycle 1, culture fourfold diluted
[9] = PPMP 0.1 μM, time in drug 60 h, time of cycle 12 h, cycle 2
[10] = PPMP 0.1 μM, time in drug 80 h, time of cycle 32 h, cycle 2, culture fourfold diluted
[11] = PPMP 0.1 μM, time in drug 104 h, time of cycle 8 h, cycle 3
[12] = PPMP 0.5 μM, time in drug 0 h, time of cycle 12 h, cycle 1
[13] = PPMP 0.5 μM, time in drug 34 h, time of cycle 46 h, cycle 1, culture fourfold diluted
[14] = PPMP 0.5 μM, time in drug 60 h, time of cycle 12 h, cycle 2
[15] = PPMP 0.5 μM, time in drug 80 h, time of cycle 32 h, cycle 2, culture fourfold diluted
[16] = PPMP 0.5 μM, time in drug 104 h, time of cycle 8 h, cycle 3
[17] = PPMP 1.0 μM, time in drug 0 h, time of cycle 12 h, cycle 1
[18] = PPMP 1.0 μM, time in drug 34 h, time of cycle 46 h, cycle 1, culture fourfold diluted
[19] = PPMP 1.0 μM, time in drug 60 h, time of cycle 12 h, cycle 2
[20] = PPMP 1.0 μM, time in drug 80 h, time of cycle 32 h, cycle 2, culture fourfold diluted
[21] = PPMP 1.0 μM, time in drug 104 h, time of cycle 8 h, cycle 3
[22] = PPMP 5.0 μM, time in drug 0 h, time of cycle 12 h, cycle 1
[23] = PPMP 5.0 μM, time in drug 34 h, time of cycle 46 h, cycle 1, culture fourfold diluted
[24] = PPMP 5.0 μM, time in drug 60 h, time of cycle 12 h, cycle 2
[25] = PPMP 5.0 μM, time in drug 80 h, time of cycle 32 h, cycle 2, culture fourfold diluted
[26] = PPMP 5.0 μM, time in drug 104 h, time of cycle 8 h, cycle 3

CCCCCCCCCCCCCCCC(=O)N[C@H](CN1CCOCC1)[C@H](O)c1ccccc1 (relative stereo) [PPMP, dl-threo-1-phenyl-2-palmitoylamino-3-morpholino-1-propanol]
effect on trophozoite stage parasites (P. falciparum): blocks the development of trophozoite stage parasites | effect on ring development (P. falciparum; 5 μM, first cycle): completely inhibits rings in their first cycle growth | growth inhibition with increasing concentration (P. falciparum; 0.05 to 1.0 μM PPMP): gradual increase in the observed growth inhibition | parasitemia [%], ring (P. falciparum; [2]): 10% | parasitemia [%], schizont (P. falciparum; [2]): 0% | parasitemia [%], trophozoite (P. falciparum; [2]): 0% | parasitemia [%], ring (P. falciparum; [3]): 0% | parasitemia [%], schizont (P. falciparum; [3]): 5% | parasitemia [%], trophozoite (P. falciparum; [3]): 4% | parasitemia [%], ring (P. falciparum; [4]): 5% | parasitemia [%], schizont (P. falciparum; [4]): 1% | parasitemia [%], trophozoite (P. falciparum; [4]): 0% | parasitemia [%], ring (P. falciparum; [5]): 5% | parasitemia [%], schizont (P. falciparum; [5]): 0% | parasitemia [%], trophozoite (P. falciparum; [5]): 0% | parasitemia [%], ring (P. falciparum; [6]): 1% | parasitemia [%], schizont (P. falciparum; [6]): 0% | parasitemia [%], trophozoite (P. falciparum; [6]): 0% | parasitemia [%], ring (P. falciparum; [7]): 10% | parasitemia [%], schizont (P. falciparum; [7]): 0% | parasitemia [%], trophozoite (P. falciparum; [7]): 0% | parasitemia [%], ring (P. falciparum; [8]): 0% | parasitemia [%], schizont (P. falciparum; [8]): 5% | parasitemia [%], trophozoite (P. falciparum; [8]): 4% | parasitemia [%], ring (P. falciparum; [9]): 4% | parasitemia [%], schizont (P. falciparum; [9]): 1% | parasitemia [%], trophozoite (P. falciparum; [9]): 0% | parasitemia [%], ring (P. falciparum; [10]): 4% | parasitemia [%], schizont (P. falciparum; [10]): 0% | parasitemia [%], trophozoite (P. falciparum; [10]): 0% | parasitemia [%], ring (P. falciparum; [11]): 1% | parasitemia [%], schizont (P. falciparum; [11]): 0% | parasitemia [%], trophozoite (P. falciparum; [11]): 0% | parasitemia [%], ring (P. falciparum; [12]): 10% | parasitemia [%], schizont (P. falciparum; [12]): 0% | parasitemia [%], trophozoite (P. falciparum; [12]): 0% | parasitemia [%], ring (P. falciparum; [13]): 0% | parasitemia [%], schizont (P. falciparum; [13]): 4% | parasitemia [%], trophozoite (P. falciparum; [13]): 5% | parasitemia [%], ring (P. falciparum; [14]): 4% | parasitemia [%], schizont (P. falciparum; [14]): 1% | parasitemia [%], trophozoite (P. falciparum; [14]): 0% | parasitemia [%], ring (P. falciparum; [15]): 5% | parasitemia [%], schizont (P. falciparum; [15]): 0% | parasitemia [%], trophozoite (P. falciparum; [15]): 0% | parasitemia [%], ring (P. falciparum; [16]): 1% | parasitemia [%], schizont (P. falciparum; [16]): 0% | parasitemia [%], trophozoite (P. falciparum; [16]): 0% | parasitemia [%], ring (P. falciparum; [17]): 10% | parasitemia [%], schizont (P. falciparum; [17]): 0% | parasitemia [%], trophozoite (P. falciparum; [17]): 0% | parasitemia [%], ring (P. falciparum; [18]): 0% | parasitemia [%], schizont (P. falciparum; [18]): 4% | parasitemia [%], trophozoite (P. falciparum; [18]): 4% | parasitemia [%], ring (P. falciparum; [19]): 3% | parasitemia [%], schizont (P. falciparum; [19]): 2% | parasitemia [%], trophozoite (P. falciparum; [19]): 0% | parasitemia [%], ring (P. falciparum; [20]): 3% | parasitemia [%], schizont (P. falciparum; [20]): 0% | parasitemia [%], trophozoite (P. falciparum; [20]): 0% | parasitemia [%], ring (P. falciparum; [21]): 1% | parasitemia [%], schizont (P. falciparum; [21]): 0% | parasitemia [%], trophozoite (P. falciparum; [21]): 0% | parasitemia [%], ring (P. falciparum; [22]): 10% | parasitemia [%], schizont (P. falciparum; [22]): 0% | parasitemia [%], trophozoite (P. falciparum; [22]): 0% | parasitemia [%], ring (P. falciparum; [23]): 9% | parasitemia [%], schizont (P. falciparum; [23]): 0% | parasitemia [%], trophozoite (P. falciparum; [23]): 0% | parasitemia [%], ring (P. falciparum; [24]): 2% | parasitemia [%], schizont (P. falciparum; [24]): 0% | parasitemia [%], trophozoite (P. falciparum; [24]): 0% | parasitemia [%], ring (P. falciparum; [25]): 0% | parasitemia [%], schizont (P. falciparum; [25]): 0% | parasitemia [%], trophozoite (P. falciparum; [25]): 0% | parasitemia [%], ring (P. falciparum; [26]): 0% | parasitemia [%], schizont (P. falciparum; [26]): 0% | parasitemia [%], trophozoite (P. falciparum; [26]): 0% | effect on development (P. falciparum; concentrations as low as 0.05 μM, first cycle): do not stop development through the first cycle | efficacy compared with PDMP (P. falciparum; long term culture): more effective than PDMP | inhibition of protein synthesis (protein synthesis): not inhibitory | effect on schizont maturation and merozoite invasion into erythrocytes [1]: not to block either schizont maturation or merozoite invasion into erythrocytes | fate of schizonts greater than 40 h in the cycle [1]: mature and rupture | development of rings formed in drug after washing free of the drug ([1]; then washout): developed normally in culture | effect on parasite in a single cycle of expansion in culture (P. chabaudi): inhibited | effect on parasite in a single cycle of expansion in culture (P. yoelii): inhibited
